Experimental data taken from article PMC10065799, “High-throughput profiling of sequence recognition by tyrosine kinases and SH2 domains using bacterial peptide display” (eLife, 2023).

Biological target: T1, c-Abl kinase domain (Mus musculus, UniProt P00520)
T1 sequence (P00520 242-493 limits assumed): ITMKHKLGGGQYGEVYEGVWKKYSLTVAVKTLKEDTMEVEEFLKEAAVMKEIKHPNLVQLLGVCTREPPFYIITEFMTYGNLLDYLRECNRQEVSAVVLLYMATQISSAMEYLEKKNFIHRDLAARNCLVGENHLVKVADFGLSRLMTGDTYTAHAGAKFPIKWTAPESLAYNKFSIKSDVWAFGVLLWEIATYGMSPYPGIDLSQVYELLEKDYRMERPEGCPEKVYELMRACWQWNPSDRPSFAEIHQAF
Assay: pTyr-Var library bacterial peptide display kinase screen (enrichment scores)
Type: biochemical
Settings: variant versus reference peptide

| Sequence | c-Abl difference (mean log2 variant - mean log2 reference) |
| --- | --- |
| ATVQNYLPKCI [A2M_Y817_L815Q] | -0.04049 |
| LHVGFYESDVM [A2M_Y708_R704H] | -1.318 |
